{
  "source": "patent US9695191B2",
  "about": "“Conformationally constrained, fully synthetic macrocyclic compounds” (POLYPHOR AG, priority 2009, dated 2017)",
  "key": {"[1]": {"settings": "from CN(C(=O)c1cc(F)ccc1OC[C@@H]1C[C@H](NC(=O)OCC[Si](C)(C)C)CN1)[C@@H](CCC(=O)O)C(=O)OCc1ccccc1; amide bond; T3P; CH2Cl2; 10.0 mM; 25.0 °C; […]"}, "[2]": {"settings": "human, 10 μM", "quoted_text": "(§2) Example compounds were dissolved in DMSO/H2O 90:10 to a final concentration of 10 mM for plasma stability determination and metabolic stability determination.\n(§3) Human plasma (3-5 donors, Blutspendedienst SRK, Basel) and CD-1 mouse plasma (mixed gender pool>50 animals, Innovative Research, CA, USA) are both sodium citrate stabilized. The assay is performed in triplicates at 10 μM compound concentration and 37° C. Samples are taken at 0, 15, 60, and 240 minutes and stopped by precipitation with 2 volumes of acetonitrile. The supernatant is collected, evaporated and reconstituted in a 5% acetonitrile solution to be analyzed by HPLC/MS/MS. The resulting peak area counts are expressed in percent of the 0 value and used to determine the endpoint stability in % and the half life T½ in minutes. In order to monitor assay integrity the degradation of propantheline is assayed with every experimental set"}, "[3]": {"experiment": "Metabolic stability, human microsomes", "assay_type": "in vitro ADME", "settings": "% of the initial 0 minutes value at 60 min, 10 μM, 37° C.", "protocol": "(§1) Microsomes from a human 50 donor mixed gender pool and 1:1 mixtures of microsomes from CD-1 mouse single-gender pools are purchased from Celsis (Belgium). The enzymatic reaction is performed in a buffer containing an NADPH regeneration system and microsomes with the following end concentrations: 100 mM potassium phosphate buffer (all from Sigma), 1 mg/mL glucose-6-phosphate, 1 mg/mL β-nicotinamide adenine dinucleotide phosphate (NADP), 0.65 mg/mL magnesium chloride, 0.8 units/mL of glucose-6-phosphate dehydrogenase (prediluted with 5 mM citrate buffer), 10 μM compound and 1 mg/ml microsomal protein. Compounds are incubated at 37° C. in duplicates and samples are taken after 0, 20 and 60 minutes. After acetonitrile precipitation (2 volumes) and HPLC/MS/MS analysis metabolic turnover is expressed in % of the initial 0 minutes value and half life T½ (min) is calculated. Verapamil for human and propranolol for mouse are used as reference and are assayed with every experimental set. • F. P. Guengerich, Analysis and Characterization of Enzymes; in: Principles and Methods of Toxicology; A. W. Hayes (Ed.) Raven Press: New York, 1989, 777-813. • R. Singh et al., In vitro metabolism of a potent HIV-protease inhibitor (141W94) using rat, monkey and human liver S9, Rapid Commun. Mass Spectrom. 1996, 10, 1019-1026. 5. Results"}, "[4]": {"experiment": "Metabolic stability, CD-1 mouse microsomes", "assay_type": "in vitro ADME", "settings": "% of the initial 0 minutes value at 60 min, 10 μM, 37° C.", "protocol": "as §1"}, "[5]": {"settings": "both, CD-1, mouse, 10 μM", "quoted_text": "as §2, §3"}},
  "data": [
    {"compound": "CN1C(=O)c2cc(F)ccc2OC[C@@H]2C[C@H](NC(=O)OCC[Si](C)(C)C)CN2C(=O)CC[C@H]1C(=O)OCc1ccccc1", "values": [
      {"measurement": "ring closure, yield of all isomers", "setting": "[1]", "result": 61, "unit": "%"}
    ]},
    {"compound": "CN(C)CCNC(=O)[C@H]1CCC(=O)N(C)CC(=O)N2CCN(C(=O)Cc3ccc4ccccc4c3)C[C@@H]2COc2ccc(F)cc2C(=O)N1C", "note": "[Ex. 138, (12R,20aR)-N-[2-(dimethylamino)ethyl]-16-fluoro-8,13-dimethyl-2-[2-(2-naphthyl)acetyl]-6,9,14-trioxo-1,2,3,4,7,8,9,10,11,12,13,14,20,20a-tetradecahydro-6H-pyrazino[2,1-c][1,4,7,12] benzoxatriazacyclopentadecine-12-carboxamide]", "values": [
      {"measurement": "Plasma Stability 240 min hum", "setting": "[2]", "result": 89, "unit": "%"},
      {"measurement": "Metabolic Stability 60 min hum", "setting": "[3]", "result": 62, "unit": "%"},
      {"measurement": "Metabolic Stability 60 min mouse", "setting": "[4]", "result": 99, "unit": "%"},
      {"measurement": "Plasma Stability 240 min mouse", "setting": "[5]", "result": 78, "unit": "%"}
    ]},
    {"compound": "CN(C)CCNC(=O)[C@@H]1CCC(=O)N(C)CC(=O)N2C[C@@H](NC(=O)Cc3c[nH]c4ccccc34)C[C@H]2COc2ccc(F)cc2C(=O)N1C", "note": "[Ex. 11, (2S,11S,19aS)-N-[2-(dimethylamino)ethyl]-15-fluoro-2-{[2-(1H-indol-3-yl)acetyl]amino}-7,12-dimethyl-5,8,13-trioxo-2,3,6,7,8,9,10,11,12,13,19,19a-dodecahydro-1H,5H-pyrrolo [2,1-c][1,4,7,12]benzoxatriazacyclopentadecine-11-carboxamide]", "values": [
      {"measurement": "Plasma Stability 240 min hum", "setting": "[2]", "result": 100, "unit": "%"},
      {"measurement": "Metabolic Stability 60 min hum", "setting": "[3]", "result": 74, "unit": "%"},
      {"measurement": "Metabolic Stability 60 min mouse", "setting": "[4]", "result": 77, "unit": "%"},
      {"measurement": "Plasma Stability 240 min mouse", "setting": "[5]", "result": 100, "unit": "%"}
    ]},
    {"compound": "CN1C[C@H](NC(=O)OCc2ccccc2)C(=O)N(C)CC(=O)N2C[C@@H](NC(=O)Cc3c[nH]c4ccccc34)C[C@H]2COc2cccc(c2)C1=O", "note": "[Ex. 200, benzyl N-[(4S,6S,13S)-6-{[2-(1H-indol-3-yl)acetyl]amino}-11,15-dimethyl-9,12,16-trioxo-2-oxa-8,11,15-triazatricyclo[15.3.1.0^4,8]henicosa-1(21),17,19-trien-13-yl]carbamate]", "values": [
      {"measurement": "Plasma Stability 240 min hum", "setting": "[2]", "result": 91, "unit": "%"},
      {"measurement": "Metabolic Stability 60 min hum", "setting": "[3]", "result": 12, "unit": "%"},
      {"measurement": "Metabolic Stability 60 min mouse", "setting": "[4]", "result": 26, "unit": "%"},
      {"measurement": "Plasma Stability 240 min mouse", "setting": "[5]", "result": 100, "unit": "%"}
    ]},
    {"compound": "CCCCCCCCCC(=O)N[C@H]1C[C@H]2COc3ccc(F)cc3C(=O)N(C)[C@H](C(=O)NCc3ccc4ccccc4c3)CCC(=O)N(C)CC(=O)N2C1", "note": "[Ex. 102, (2S,11S,19aS)-2-(decanoylamino)-15-fluoro-7,12-dimethyl-N-(2-naphthylmethyl)-5,8,13-trioxo-2,3,6,7,8,9,10,11,12,13,19,19a-dodecahydro-1H,5H-pyrrolo[2,1-c][1,4,7,12] benzoxatriazacyclopentadecine-11-carboxamide]", "values": [
      {"measurement": "Plasma Stability 240 min hum", "setting": "[2]", "result": 65, "unit": "%"},
      {"measurement": "Metabolic Stability 60 min hum", "setting": "[3]", "result": 4, "unit": "%"},
      {"measurement": "Metabolic Stability 60 min mouse", "setting": "[4]", "result": 39, "unit": "%"},
      {"measurement": "Plasma Stability 240 min mouse", "setting": "[5]", "result": 75, "unit": "%"}
    ]},
    {"compound": "CN1CC(=O)N2C[C@@H](NC(=O)CN3CCCC3)C[C@H]2COc2ccc(F)cc2C(=O)N(C)[C@@H](C(=O)N2CCCC2)CCC1=O", "note": "[Ex. 98, N-[(2S,11R,19aS)-15-fluoro-7,12-dimethyl-5,8,13-trioxo-11-(1-pyrrolidinylcarbonyl)-2,3,6,7,8,9,10,11,12,13,19,19a-dodecahydro-1H,5H-pyrrolo[2,1-c][1,4,7,12]benzoxatriazacyclopentadecin-2-yl]-2-(1-pyrrolidinyl)acetamide]", "values": [
      {"measurement": "Plasma Stability 240 min hum", "setting": "[2]", "result": 100, "unit": "%"},
      {"measurement": "Metabolic Stability 60 min hum", "setting": "[3]", "result": 97, "unit": "%"},
      {"measurement": "Metabolic Stability 60 min mouse", "setting": "[4]", "result": 100, "unit": "%"},
      {"measurement": "Plasma Stability 240 min mouse", "setting": "[5]", "result": 78, "unit": "%"}
    ]},
    {"compound": "CN1CC(=O)N2C[C@H](NC(=O)CN3CCCC3)C[C@H]2COc2ccc(cc2)C(=O)N(C)[C@H](C(=O)NCc2ccncc2)CCC1=O", "note": "[Ex. 266, (4S,6R,15S)-11,16-dimethyl-9,12,17-trioxo-N-(4-pyridinylmethyl)-6-{[2-(1-pyrrolidinyl)acetyl]amino}-2-oxa-8,11,16-triazatricyclo[16.2.2.0^4,8]docosa-1(20),18,21-triene-15-carboxamide]", "values": [
      {"measurement": "Plasma Stability 240 min hum", "setting": "[2]", "result": 92, "unit": "%"},
      {"measurement": "Metabolic Stability 60 min hum", "setting": "[3]", "result": 100, "unit": "%"},
      {"measurement": "Metabolic Stability 60 min mouse", "setting": "[4]", "result": 98, "unit": "%"},
      {"measurement": "Plasma Stability 240 min mouse", "setting": "[5]", "result": 74, "unit": "%"}
    ]}
  ]
}
